Experimental findings from ChEMBL document CHEMBL1201862, “PubChem BioAssay data set” (2004) are described below.

Assay in all cases: NCI-60 cell line screen, 48 h
Experiment [1] has as its system T47D.
The test system of experiment [2] is NCI-H522.
Experiment [3] concerns HOP-92.
The subject of experiment [4] is SK-MEL-2.
Experiment [5] has as its system EKVX.
For experiment [6], the system named is SK-OV-3.
Experiment [7] relates to HCT-116.
In experiment [8] the test system is ACHN.
Experiment [9] has as its system SK-MEL-28.
For experiment [10], the system named is SF-268.
The test system of experiment [11] is A498.
Experiment [12] relates to MCF7.
For experiment [13], the system named is SF-295.
Experiment [14] relates to HT-29.
Experiment [15] relates to SR.
The test system of experiment [16] is SN12C.
In experiment [17] the test system is CCRF-CEM.
The test system of experiment [18] is A549.
Experiment [19] has as its system MDA-MB-231.
Experiment [20] has as its system MDA-N.

Each structure is given as a SMILES string.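 Protocol summary: plate cells (96-well), add compound at 5 concentrations, incubate 48 h, interpolate endpoints linearly. Abbreviation: GI50, concentration required for 50% inhibition of growth.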 Activity calls are given as the source filed them. Rule as the data show it: active = GI50 up to about 1.1 µM and inactive = higher.

Consider `Cc1nc(C(N)=S)sc1C(=O)C/C(=N/N)C(=O)Nc1cccc(Cl)c1C`, for which the GI50 in experiment [1], in experiment [2], in [3], in [4], in experiment [5] and in experiment [6] was > 100 µM (inactive) each time. Besides, the GI50 in [7], in [8], in experiment [9], in experiment [10], in [11] and in experiment [12] was > 100 µM (inactive) each time. Further, the GI50 in experiment [13], in experiment [14], in experiment [15], in experiment [16], in experiment [17] and in [18] was > 100 µM (inactive) throughout. The GI50 in experiment [19] and in experiment [20] was > 100 µM (inactive) in each case.
Regarding `O=C1OC[C@H]2[C@@H]1[C@H]1O[C@@H]2C2=C(CCC2)C1=O`, the GI50 in [1], in experiment [2], in [3], in experiment [4], in experiment [5] and in [6] was > 100 µM (inactive) throughout. For the same compound, the GI50 in experiment [7], in [8], in experiment [9], in [10], in experiment [11] and in experiment [12] was > 100 µM (inactive) each time. In addition, the GI50 in experiment [13], in experiment [14], in [15], in experiment [16], in experiment [17] and in [18] was > 100 µM (inactive) throughout. Also, the GI50 in experiment [19] and in [20] was > 100 µM (inactive) in each case.
In the case of `Clc1ccc(C(c2ccc(Cl)cc2)N2CCNCC2)cc1`, the GI50 is 2.04 µM (inactive) in [1]; 1.78 µM (inactive) in experiment [2]; 3.01 µM (inactive) in experiment [3]; 1.85 µM (inactive) in experiment [4]; 3.02 µM (inactive) in experiment [5]; 5.43 µM (inactive) in [6]. The GI50 in [7] is 1.73 µM (inactive); in [8], 2.16 µM (inactive); in [9], 1.81 µM (inactive); in experiment [10] it was 4.95 µM (inactive); in experiment [11], 1.78 µM (inactive); in experiment [12], 1.91 µM (inactive). Besides, the GI50 in [13] is 2.28 µM (inactive); in experiment [14] it was 2.03 µM (inactive); in experiment [15], 1.75 µM (inactive); in experiment [16], 2.89 µM (inactive); in experiment [17], 2.34 µM (inactive); in [18] it was 2.74 µM (inactive). Moreover, the GI50 in [19] was 2.09 µM (inactive); in experiment [20], 1.89 µM (inactive).
For the compound `O=C1CC2OCC=C3CN4CCC5(C(=O)O)C(N1)C2C3CC45` (stereo not drawn), the GI50 in experiment [1], in experiment [2], in experiment [3], in [4], in [5] and in [6] was > 100 µM (inactive) throughout. For the same compound, the GI50 in experiment [7], in experiment [8], in [9], in [10], in [11] and in experiment [12] was > 100 µM (inactive) in each case. For the same compound, the GI50 in experiment [13], in experiment [14], in experiment [15], in [16], in experiment [17] and in experiment [18] was > 100 µM (inactive) each time. Besides, the GI50 in [19] and in experiment [20] was > 100 µM (inactive) in each case.
Take `Oc1c(CN2CCOCC2)ccc(CN2CCOCC2)c1O`: the GI50 was 39.7 µM (inactive) in [1]; 29.6 µM (inactive) in experiment [2]; > 100 µM (inactive) in experiment [3]; 29 µM (inactive) in experiment [4]; 50.8 µM (inactive) in experiment [5]; 54 µM (inactive) in [6]. Moreover, the GI50 in experiment [7] is 38 µM (inactive); in experiment [8], 30.9 µM (inactive); in experiment [9] it was 61.5 µM (inactive); in experiment [10], 30.9 µM (inactive); in experiment [11], > 100 µM (inactive); in [12] it was 35.2 µM (inactive). For the same compound, the GI50 in experiment [13] was 26 µM (inactive); in experiment [14], 52.1 µM (inactive); in experiment [15], 24.5 µM (inactive); in [16] it was 25.6 µM (inactive); in experiment [17], 3.62 µM (inactive); in experiment [18] it was 39.4 µM (inactive). Moreover, the GI50 in [19] was > 100 µM (inactive); in experiment [20] it was 50.2 µM (inactive).
On to `CCOC(=O)Oc1ccc2c(c1)c(=O)c1c(NCCN(CC)CC)ccc3nnn2c31`, for which the GI50 in experiment [1] is 14.8 µM (inactive); in experiment [2] it was 0.69 µM (active); in [3], 4.22 µM (inactive); in [4], 13.2 µM (inactive); in experiment [5] it was 6.41 µM (inactive); in experiment [6], 8 µM (inactive). The GI50 in experiment [7] was 0.405 µM (active); in experiment [8], 0.406 µM (active); in experiment [9] it was 11.7 µM (inactive); in experiment [10], 1.43 µM (inactive); in [11] it was 6.52 µM (inactive); in experiment [12] it was 0.392 µM (active). The GI50 in experiment [13] is 3.78 µM (inactive); in [14], 1.29 µM (inactive); in experiment [15], 0.113 µM (active); in experiment [16], 0.809 µM (active); in experiment [17], 0.172 µM (active); in experiment [18] it was 0.2 µM (active). For the same compound, the GI50 in experiment [19] is 2.48 µM (inactive); in [20], 2.94 µM (inactive).
With `O=C1/C(=C/c2n[nH]cc2-c2ccc(Cl)cc2)C(=O)N(c2ccccc2)C1c1ccccc1` (stereo not drawn), the GI50 was 1.69 µM (inactive) in [1]; 7.74 µM (inactive) in [2]; 23.4 µM (inactive) in [3]; 15.2 µM (inactive) in [4]; 20.7 µM (inactive) in experiment [5]; 15.5 µM (inactive) in experiment [6]. Besides, the GI50 in experiment [7] is 12.5 µM (inactive); in experiment [8], 20.1 µM (inactive); in experiment [9] it was 17.7 µM (inactive); in [10] it was 13.7 µM (inactive); in experiment [11], 20.6 µM (inactive); in experiment [12] it was 25.9 µM (inactive). Besides, the GI50 is 18.4 µM (inactive) in experiment [13]; 12.3 µM (inactive) in experiment [14]; 11.8 µM (inactive) in experiment [15]; 29.1 µM (inactive) in [16]; 17.6 µM (inactive) in [17]; 25 µM (inactive) in experiment [18]. Further, the figures for the GI50 in [19] and in experiment [20] were 18.9 µM (inactive) and 14 µM (inactive), respectively.
With `Cc1ccc(/N=N/c2ccc(O)c(CN(C)C)c2)cc1C`, the GI50 in experiment [1] is 14 µM (inactive); in experiment [2] it was 10.6 µM (inactive); in experiment [3], 26.8 µM (inactive); in experiment [4] it was 16.2 µM (inactive); in experiment [5] it was 20.6 µM (inactive); in experiment [6], 45 µM (inactive). Also, the GI50 in experiment [7] is 36.3 µM (inactive); in experiment [8], 17.6 µM (inactive); in experiment [9] it was 5.47 µM (inactive); in [10], 27.9 µM (inactive); in [11], 22.3 µM (inactive); in [12], 35.3 µM (inactive). Further, the GI50 in experiment [13] was 40.7 µM (inactive); in experiment [14], 18.4 µM (inactive); in [15] it was 27.2 µM (inactive); in experiment [16], > 100 µM (inactive); in [17], 24 µM (inactive); in experiment [18], 34.7 µM (inactive). Also, the results for the GI50 in experiment [19] and in experiment [20] were 16.3 µM (inactive) and 38.9 µM (inactive), respectively.
Turning to `CCCCCCCN(CCCCCCC)CC(O)c1cc2ccccc2c2cc(Br)ccc12` (stereo not drawn), the GI50 in experiment [1] was 43 µM (inactive); in [2], 28.7 µM (inactive); in experiment [3] it was 19.2 µM (inactive); in [4] it was 33.1 µM (inactive); in experiment [5] it was 25.8 µM (inactive); in experiment [6] it was > 100 µM (inactive). Moreover, the GI50 in [7] is 21.1 µM (inactive); in [8] it was 24.5 µM (inactive); in experiment [9], 36.6 µM (inactive); in experiment [10] it was 19 µM (inactive); in experiment [11], > 100 µM (inactive); in experiment [12] it was 12.7 µM (inactive). Moreover, the GI50 in [13] is > 10 µM (inactive); in [14], 67 µM (inactive); in experiment [15], 22.6 µM (inactive); in experiment [16] it was 6.58 µM (inactive); in [17], 40.9 µM (inactive); in [19], 5.98 µM (inactive). Further, the GI50 in [20] is 28.5 µM (inactive).
For the compound `CC(=O)Nc1ccc2c3c(cc(O)c2c1)N(C(=O)CCCCCC(=O)N1CC(CCl)c2c1cc(O)c1cc(NC(C)=O)ccc21)CC3CCl` (stereo not drawn), the GI50 in experiment [1] was < 0.01 µM (active); in [2] it was < 0.01 µM (active); in experiment [3], < 0.01 µM (active); in experiment [4], 0.0147 µM (active); in [5] it was 0.193 µM (active); in [6], 0.0405 µM (active). Further, the GI50 in [7] was 0.0101 µM (active); in experiment [8], < 0.01 µM (active); in [9], 0.0547 µM (active); in experiment [10], < 0.01 µM (active); in experiment [11] it was 0.0109 µM (active); in [12] it was < 0.01 µM (active). Besides, the GI50 in experiment [13] was 0.0156 µM (active); in experiment [14], 0.0321 µM (active); in experiment [15], < 0.01 µM (active); in experiment [16] it was < 0.012 µM (active); in experiment [18] it was 0.0176 µM (active); in [19], 0.0301 µM (active). The GI50 in [20] was 0.0164 µM (active).
